{
  "source": "paper PMC12647645",
  "about": "“Structural interactions of BWC0977 with Klebsiella pneumoniae topoisomerase IV and biochemical basis of its broad-spectrum activity” (Communications Biology, 2025)",
  "key": {"[1]": {"system": "A. baumannii ATCC 19606", "test": "MIC broth microdilution", "type": "cell-based", "conditions": "Acinetobacter baumannii"}, "[2]": {"system": "A. baumannii ATCC 19606 resistant mutant colonies (mutant 1-5)", "test": "microbe, parasite or virus in culture", "type": "cell-based", "conditions": "Acinetobacter baumannii"}, "[3]": {"molecular_target": "T1, E. coli gyrase (Escherichia coli, UniProt P0AES4+P0AES6)", "T1 construct": "purchased Inspiralis", "test": "biochemical", "type": "biochemical"}, "[4]": {"molecular_target": "T2, E. coli topoisomerase IV (Escherichia coli, UniProt P0AFI2+P20083)", "T2 construct": "purchased Inspiralis", "test": "biochemical", "type": "biochemical", "conditions": "read-out: IC50 E. coli topo IV decatenation"}, "[5]": {"molecular_target": "Human topo IIα (Homo sapiens, UniProt P11388)", "sequence (P11388 whole entry)": "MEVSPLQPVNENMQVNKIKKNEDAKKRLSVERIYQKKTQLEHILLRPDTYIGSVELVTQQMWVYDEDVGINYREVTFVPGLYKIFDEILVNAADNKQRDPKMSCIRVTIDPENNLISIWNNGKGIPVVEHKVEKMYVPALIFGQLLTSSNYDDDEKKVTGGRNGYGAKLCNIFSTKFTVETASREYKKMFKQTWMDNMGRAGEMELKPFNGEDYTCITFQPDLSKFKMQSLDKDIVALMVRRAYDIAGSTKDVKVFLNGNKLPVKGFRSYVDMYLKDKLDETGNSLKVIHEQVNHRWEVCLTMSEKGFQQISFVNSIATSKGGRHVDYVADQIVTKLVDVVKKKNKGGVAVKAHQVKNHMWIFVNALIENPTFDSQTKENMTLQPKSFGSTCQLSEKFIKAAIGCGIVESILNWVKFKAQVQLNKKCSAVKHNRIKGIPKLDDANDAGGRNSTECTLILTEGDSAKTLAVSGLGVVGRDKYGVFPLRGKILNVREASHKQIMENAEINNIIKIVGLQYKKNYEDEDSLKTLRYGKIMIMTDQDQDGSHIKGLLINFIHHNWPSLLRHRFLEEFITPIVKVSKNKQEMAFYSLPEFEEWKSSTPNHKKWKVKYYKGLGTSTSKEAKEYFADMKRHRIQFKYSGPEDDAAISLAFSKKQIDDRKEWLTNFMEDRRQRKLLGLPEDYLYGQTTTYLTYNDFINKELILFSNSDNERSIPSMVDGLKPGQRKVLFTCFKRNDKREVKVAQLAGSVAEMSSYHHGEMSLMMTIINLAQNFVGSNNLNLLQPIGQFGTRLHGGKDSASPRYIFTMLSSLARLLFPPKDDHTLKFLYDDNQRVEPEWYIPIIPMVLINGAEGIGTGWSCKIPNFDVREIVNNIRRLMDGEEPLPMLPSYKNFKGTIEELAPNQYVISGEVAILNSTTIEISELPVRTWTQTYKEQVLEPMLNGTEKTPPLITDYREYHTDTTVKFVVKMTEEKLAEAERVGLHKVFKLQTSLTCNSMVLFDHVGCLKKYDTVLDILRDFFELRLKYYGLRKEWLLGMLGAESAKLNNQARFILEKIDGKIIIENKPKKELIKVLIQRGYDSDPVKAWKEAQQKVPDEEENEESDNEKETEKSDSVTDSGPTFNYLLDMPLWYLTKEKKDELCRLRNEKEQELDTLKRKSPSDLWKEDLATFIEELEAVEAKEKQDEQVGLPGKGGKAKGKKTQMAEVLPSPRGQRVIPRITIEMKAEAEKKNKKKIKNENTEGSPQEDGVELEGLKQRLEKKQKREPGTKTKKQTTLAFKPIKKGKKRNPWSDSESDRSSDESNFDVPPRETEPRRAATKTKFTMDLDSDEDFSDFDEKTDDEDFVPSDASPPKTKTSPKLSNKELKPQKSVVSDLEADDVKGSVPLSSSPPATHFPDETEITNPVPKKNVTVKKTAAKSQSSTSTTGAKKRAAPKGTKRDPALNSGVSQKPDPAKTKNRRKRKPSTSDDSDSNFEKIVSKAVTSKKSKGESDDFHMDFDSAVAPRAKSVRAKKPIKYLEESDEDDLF", "test": "Human topo IIα decatenation assay", "type": "biochemical", "procedure": "(§1) Human topo IIα (0.9 nM) and topo IIß (2.2 nM) decatenation assays were performed following the same protocol used for bacterial topoisomerase IV decatenation assays. The assay buffer was made of 50 mM Tris. HCl (pH 7.5), 125 mM NaCl, 10 mM MgCl2, 5 mM DTT, and 100 μg/mL albumin."}, "[6]": {"molecular_target": "Human topo IIß (Homo sapiens, UniProt Q02880)", "sequence (Q02880 whole entry)": "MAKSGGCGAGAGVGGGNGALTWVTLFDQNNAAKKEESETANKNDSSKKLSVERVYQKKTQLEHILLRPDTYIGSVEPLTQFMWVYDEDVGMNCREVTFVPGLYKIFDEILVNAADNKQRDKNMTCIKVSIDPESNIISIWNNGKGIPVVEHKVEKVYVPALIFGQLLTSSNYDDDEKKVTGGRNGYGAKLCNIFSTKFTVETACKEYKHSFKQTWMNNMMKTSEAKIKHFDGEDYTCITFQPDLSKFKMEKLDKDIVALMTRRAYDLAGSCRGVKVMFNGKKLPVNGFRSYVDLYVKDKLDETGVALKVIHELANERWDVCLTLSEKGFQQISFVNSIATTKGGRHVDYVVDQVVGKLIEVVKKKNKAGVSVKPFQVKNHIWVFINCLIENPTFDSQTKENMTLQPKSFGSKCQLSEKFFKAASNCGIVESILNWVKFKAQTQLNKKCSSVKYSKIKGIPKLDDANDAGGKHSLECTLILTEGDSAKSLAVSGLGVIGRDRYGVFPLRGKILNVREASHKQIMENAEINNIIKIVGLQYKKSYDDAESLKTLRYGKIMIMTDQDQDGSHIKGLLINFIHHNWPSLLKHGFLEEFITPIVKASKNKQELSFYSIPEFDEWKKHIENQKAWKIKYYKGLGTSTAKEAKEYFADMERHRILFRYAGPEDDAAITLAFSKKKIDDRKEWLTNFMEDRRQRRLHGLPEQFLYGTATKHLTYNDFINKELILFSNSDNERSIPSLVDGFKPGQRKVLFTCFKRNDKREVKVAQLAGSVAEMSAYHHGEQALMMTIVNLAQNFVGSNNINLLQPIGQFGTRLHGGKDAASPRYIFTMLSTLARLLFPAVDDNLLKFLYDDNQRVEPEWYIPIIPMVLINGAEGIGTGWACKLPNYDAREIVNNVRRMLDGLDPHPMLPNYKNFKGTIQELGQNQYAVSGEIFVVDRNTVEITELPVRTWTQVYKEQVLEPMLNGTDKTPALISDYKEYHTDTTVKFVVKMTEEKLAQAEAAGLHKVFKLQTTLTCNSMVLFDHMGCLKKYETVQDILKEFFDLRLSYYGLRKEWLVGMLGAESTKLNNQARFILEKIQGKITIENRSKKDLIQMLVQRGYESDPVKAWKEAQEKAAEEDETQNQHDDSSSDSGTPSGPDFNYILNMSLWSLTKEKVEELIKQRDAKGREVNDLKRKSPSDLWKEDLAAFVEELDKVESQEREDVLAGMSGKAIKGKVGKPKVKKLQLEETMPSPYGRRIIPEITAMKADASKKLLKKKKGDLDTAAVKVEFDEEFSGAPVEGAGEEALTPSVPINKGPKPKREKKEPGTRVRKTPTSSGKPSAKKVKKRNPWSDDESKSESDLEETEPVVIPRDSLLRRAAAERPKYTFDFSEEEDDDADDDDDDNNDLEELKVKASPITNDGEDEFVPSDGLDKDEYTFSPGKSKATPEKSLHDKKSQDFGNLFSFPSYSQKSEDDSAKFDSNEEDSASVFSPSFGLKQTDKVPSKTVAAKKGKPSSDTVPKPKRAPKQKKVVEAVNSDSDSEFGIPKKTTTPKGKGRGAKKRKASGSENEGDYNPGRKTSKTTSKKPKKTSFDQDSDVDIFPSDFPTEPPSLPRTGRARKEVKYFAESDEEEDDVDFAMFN", "test": "Human topo IIß decatenation assay", "type": "biochemical", "procedure": "as §1"}, "[7]": {"system": "E. coli MG1655 (GyrA WT, ParC WT)", "test": "microbe, parasite or virus in culture", "type": "cell-based", "conditions": "Escherichia coli"}, "[8]": {"system": "E. coli MG1655 GyrA D82N, ParC WT", "test": "microbe, parasite or virus in culture", "type": "cell-based", "conditions": "Escherichia coli"}, "[9]": {"system": "E. coli MG1655 GyrA WT, ParC D79N", "test": "microbe, parasite or virus in culture", "type": "cell-based", "conditions": "Escherichia coli"}, "[10]": {"system": "E. coli MG1655 GyrA D82N, ParC D79N", "test": "microbe, parasite or virus in culture", "type": "cell-based", "conditions": "Escherichia coli"}, "[11]": {"system": "E. coli MG1655 GyrA M120A, ParC M118A", "test": "microbe, parasite or virus in culture", "type": "cell-based", "conditions": "Escherichia coli"}, "[12]": {"system": "E. coli MG1655 GyrA R121K, ParC WT", "test": "microbe, parasite or virus in culture", "type": "cell-based", "conditions": "Escherichia coli"}, "[13]": {"system": "E. coli MG1655 GyrA WT, ParC R119K", "test": "microbe, parasite or virus in culture", "type": "cell-based", "conditions": "Escherichia coli"}, "[14]": {"conditions": "ATCC19606, WT, Supplementary Table 4, read-out: MIC 90 in (μg/mL), A. baumannii ATCC 19606 (WT)"}, "[15]": {"conditions": "ATCC19606, read-out: MIC 90 in (μg/mL), resistant mutant colony 3"}, "[16]": {"conditions": "ATCC19606, read-out: MIC 90 in (μg/mL), resistant mutant colony 5"}, "[17]": {"conditions": "ATCC19606, read-out: MIC 90 in (μg/mL), resistant mutant colony 1"}, "[18]": {"conditions": "ATCC19606, read-out: MIC 90 in (μg/mL), resistant mutant colony 2"}, "[19]": {"conditions": "ATCC19606, read-out: MIC 90 in (μg/mL), resistant mutant colony 4"}},
  "note": "Where two headings read alike, the source gives them in different places.",
  "data": [
    {"smiles": "C[C@@H](O)[C@H]1C(=O)N2C(C(=O)O)=C(S[C@@H]3CN[C@H](C(=O)N(C)C)C3)[C@H](C)[C@H]12", "note": "[Meropenem]", "values": [
      {"measurement": "MIC90", "setting": "[1]; [14]", "value": 0.3, "unit": "µg/mL"},
      {"measurement": "MIC90", "setting": "[2]; [15]", "value": 0.15, "unit": "µg/mL"},
      {"measurement": "MIC90", "setting": "[2]; [16]", "value": 0.6, "unit": "µg/mL"}
    ]},
    {"smiles": "CO[C@@H]1[C@@H](OC(N)=O)[C@@H](O)[C@H](Oc2ccc3c(O)c(NC(=O)c4ccc(O)c(CC=C(C)C)c4)c(=O)oc3c2C)OC1(C)C", "note": "[Novobiocin]", "values": [
      {"measurement": "MIC90", "setting": "[1]; [14]", "value": 10, "unit": "µg/mL"}
    ]},
    {"smiles": "C[C@@H]1CN2c3c(cc4c(N5C(=O)OC[C@@H]5C)noc4c3F)CC3(C(=O)NC(=O)NC3=O)[C@H]2[C@H](C)O1", "note": "[Zoliflodacin]", "values": [
      {"measurement": "IC50", "setting": "[3]", "value": 0.8, "unit": "µM"},
      {"measurement": "IC50", "setting": "[4]", "value": "27 ± 12", "unit": "µM"},
      {"measurement": "IC50", "setting": "[5]", "value": "> 200", "unit": "µM"}
    ]},
    {"smiles": "COc1cc([C@@H]2c3cc4c(cc3[C@@H](O[C@@H]3O[C@@H]5CO[C@@H](c6cccs6)O[C@H]5[C@H](O)[C@H]3O)[C@H]3COC(=O)[C@H]23)OCO4)cc(OC)c1O", "note": "[Teniposide]", "values": [
      {"measurement": "IC50", "setting": "[5]; read-out: IC50 Human topo IIα decatenation", "value": "18 ± 5", "unit": "µM"},
      {"measurement": "IC50", "setting": "[6]", "value": 92, "unit": "µM"}
    ]},
    {"smiles": "CC1(C)S[C@@H]2[C@H](NC(=O)[C@H](N)c3ccccc3)C(=O)N2[C@H]1C(=O)O", "note": "[Ampicillin]", "values": [
      {"measurement": "MIC", "setting": "[7]", "value": 5, "unit": "µg/mL"},
      {"measurement": "MIC", "setting": "[8]", "value": 5, "unit": "µg/mL"},
      {"measurement": "MIC", "setting": "[9]", "value": 2.5, "unit": "µg/mL"},
      {"measurement": "MIC", "setting": "[10]", "value": 3.3, "unit": "µg/mL"},
      {"measurement": "MIC", "setting": "[11]", "value": 4.2, "unit": "µg/mL"},
      {"measurement": "MIC", "setting": "[12]", "value": 4.2, "unit": "µg/mL"},
      {"measurement": "MIC", "setting": "[13]", "value": 5, "unit": "µg/mL"}
    ]},
    {"smiles": "CO[C@H]1/C=C/O[C@@]2(C)Oc3c(C)c(O)c4c(O)c(c(/C=N/N5CCN(C)CC5)c(O)c4c3C2=O)NC(=O)/C(C)=C\\C=C\\[C@H](C)[C@H](O)[C@@H](C)[C@@H](O)[C@@H](C)[C@H](OC(C)=O)[C@@H]1C", "note": "[Rifampicin]", "values": [
      {"measurement": "MIC90", "setting": "[1]; [14]", "value": 2.5, "unit": "µg/mL"},
      {"measurement": "MIC90", "setting": "[2]; [17]", "value": 1.25, "unit": "µg/mL"}
    ]},
    {"smiles": "C[C@H]1COc2c(N3CCN(C)CC3)c(F)cc3c(=O)c(C(=O)O)cn1c23", "note": "[Levofloxacin]", "values": [
      {"measurement": "IC50", "setting": "[3]", "value": 0.39, "unit": "µM"},
      {"measurement": "IC50", "setting": "[4]", "value": 13, "unit": "µM"},
      {"measurement": "MIC", "setting": "[7]", "value": 0.03, "unit": "µg/mL"},
      {"measurement": "MIC", "setting": "[8]", "value": 0.13, "unit": "µg/mL"},
      {"measurement": "MIC", "setting": "[9]", "value": 0.02, "unit": "µg/mL"},
      {"measurement": "MIC", "setting": "[10]", "value": 0.25, "unit": "µg/mL"},
      {"measurement": "MIC", "setting": "[11]", "value": 0.02, "unit": "µg/mL"},
      {"measurement": "MIC", "setting": "[12]", "value": 0.08, "unit": "µg/mL"},
      {"measurement": "MIC", "setting": "[13]", "value": 0.04, "unit": "µg/mL"}
    ]},
    {"smiles": "CN(C)[C@@H]1C(O)=C(C(N)=O)C(=O)[C@@]2(O)C(O)=C3C(=O)c4c(O)cccc4[C@@](C)(O)[C@H]3C[C@@H]12", "note": "[Tetracycline]", "values": [
      {"measurement": "MIC90", "setting": "[1]; [14]", "value": 0.3, "unit": "µg/mL"},
      {"measurement": "MIC90", "setting": "[2]; [17]", "value": 0.6, "unit": "µg/mL"},
      {"measurement": "MIC90", "setting": "[2]; [18]", "value": 0.6, "unit": "µg/mL"},
      {"measurement": "MIC90", "setting": "[2]; [15]", "value": 0.6, "unit": "µg/mL"},
      {"measurement": "MIC90", "setting": "[2]; [19]", "value": 0.6, "unit": "µg/mL"},
      {"measurement": "MIC90", "setting": "[2]; [16]", "value": 0.6, "unit": "µg/mL"}
    ]},
    {"smiles": "CC[C@H]1OC(=O)[C@@](C)(F)C(=O)[C@H](C)[C@@H](O[C@@H]2O[C@H](C)C[C@H](N(C)C)[C@H]2O)[C@](C)(OC)C[C@@H](C)C(=O)[C@H](C)[C@H]2N(CCCCn3cc(-c4cccc(N)c4)nn3)C(=O)O[C@]12C", "note": "[Solithromycin]", "values": [
      {"measurement": "MIC90", "setting": "[1]; ATCC19606, read-out: MIC 90 in (μg/mL), A. baumannii ATCC 19606 (WT)", "value": 2.5, "unit": "µg/mL"},
      {"measurement": "MIC90", "setting": "[2]; [17]", "value": 5, "unit": "µg/mL"},
      {"measurement": "MIC90", "setting": "[2]; [18]", "value": 2.5, "unit": "µg/mL"},
      {"measurement": "MIC90", "setting": "[2]; [15]", "value": 2.5, "unit": "µg/mL"},
      {"measurement": "MIC90", "setting": "[2]; [19]", "value": 5, "unit": "µg/mL"},
      {"measurement": "MIC90", "setting": "[2]; [16]", "value": 2.5, "unit": "µg/mL"}
    ]}
  ]
}
